Data as given in BindingDB's records for doi:10.1016/j.bmcl.2020.127000 (Ajinomoto, 2020).

Assay: Positive allosteric modulation of human TIR2/TIR3 expressed in PEAKrapid cells assessed as potentiation of sucrose-induced intracellular calcium influx by measuring sucrose EC50 at 30 uM measured for 120 secs by fluorescence based assay
Compound `CC(C)[C@H](N)C(=O)NC(C)(C)CC(=O)Nc1cncc(C(=O)O)c1N` has an EC50 of 9.3 mM. `CC(C)(CC(=O)Nc1cncc(C(=O)O)c1N)NC(=O)c1ccc(N)cc1` gave an EC50 of 8.9 mM. `CC(C)(CC(=O)Nc1cncc(C(=O)O)c1N)NC(=O)[C@@H](NC(=O)[C@@H](N)C1CCCCC1)C1CCCCC1` showed an EC50 of 2.5 mM. `CC(C)(CC(=O)Nc1cncc(C(=O)O)c1N)NC(=O)[C@@H]1CCC[C@H](N)C1` gave an EC50 of 9.8 mM. Work on `CC(C)(CC(=O)Nc1cncc(C(=O)O)c1N)NC(=O)C[C@H]1CCNC1` yielded an EC50 of 7.6 mM. For `CC(C)(CC(=O)Nc1cncc(C(=O)O)c1N)NC(=O)C1(c2ccccc2)CC1`, the EC50 was 8.4 mM. For `CC[C@H](C)[C@H](NC(=O)[C@@H](NC(=O)OC(C)(C)C)C1CCCCC1)C(=O)NC(C)(C)CC(=O)Nc1cncc(C(=O)O)c1N`, the EC50 was 3.3 mM. `CC(C)(CC(=O)Nc1cncc(C(=O)O)c1N)NC(=O)C1CCNCC1` showed an EC50 of 14.4 mM. In the case of `CC[C@H](C)[C@H](NC(=O)[C@@H](N)C1CCCCC1)C(=O)NC(C)(C)CC(=O)Nc1cncc(C(=O)O)c1N`, the EC50 is reported as 5.6 mM. Compound `CC(C)(CC(=O)Nc1cncc(C(=O)O)c1N)NC(=O)CC[C@@H](N)Cc1ccccc1` has an EC50 of 8.8 mM. Compound `CC(C)C[C@H](NC(=O)[C@@H](NC(=O)OC(C)(C)C)C1CCCCC1)C(=O)NC(C)(C)CC(=O)Nc1cncc(C(=O)O)c1N` has an EC50 of 3.7 mM. For `CC(C)(CC(=O)Nc1cncc(C(=O)O)c1N)NC(=O)[C@H]1CC[C@H](N)CC1`, the EC50 was 7.8 mM. Work on `CCCCCC(=O)NC(C)(C)CC(=O)Nc1cncc(C(=O)O)c1N` yielded an EC50 of 6.6 mM. `CC(C)(CC(=O)Nc1cncc(C(=O)O)c1N)NC(=O)C1CCNC1` (centres undefined) showed an EC50 of 8 mM. In the case of `CC(C)(CC(=O)Nc1cncc(C(=O)O)c1N)NC(=O)C1CCCCC1`, the EC50 is reported as 6.1 mM. `CCCCCCC(=O)NC(C)(C)CC(=O)Nc1cncc(C(=O)O)c1N` showed an EC50 of 7.8 mM. In the case of `CC(C)(CC(=O)Nc1cncc(C(=O)O)c1N)NC(=O)c1ccccc1`, the EC50 is reported as 11.1 mM. Work on `CC(C)(CC(=O)Nc1cncc(C(=O)O)c1N)NC(=O)CCC1CCCCC1` yielded an EC50 of 10.9 mM. Compound `CC(C)CC(=O)NC(C)(C)CC(=O)Nc1cncc(C(=O)O)c1N` has an EC50 of 7.3 mM. Work on `CC(C)(CC(=O)Nc1cncc(C(=O)O)c1N)NC(=O)c1cccc(N)c1` yielded an EC50 of 10.7 mM. Work on `CC(C)(CC(=O)Nc1cncc(C(=O)O)c1N)NC(=O)[C@H](N)C1CCCCC1` yielded an EC50 of 7.7 mM. Compound `CC(C)C[C@H](NC(=O)[C@@H](N)C1CCCCC1)C(=O)NC(C)(C)CC(=O)Nc1cncc(C(=O)O)c1N` has an EC50 of 5.6 mM. Work on `CC(C)(CC(=O)Nc1cncc(C(=O)O)c1N)NC(=O)[C@@H](N)CC1CCCCC1` yielded an EC50 of 7.3 mM. Compound `CC(C)(CC(=O)Nc1cncc(C(=O)O)c1N)NC(=O)c1cccc2c1CCCC2` has an EC50 of 8.9 mM. For `CC(C)(CC(=O)Nc1cncc(C(=O)O)c1N)NC(=O)C(C)(C)C`, the EC50 was 9.3 mM. For `CCCCCCCC/C=C\CCCCCCCC(=O)NC(C)(C)CC(=O)Nc1cncc(C(=O)O)c1N`, the EC50 was 9.9 mM. `CCCCCCCCCCCC(=O)NC(C)(C)CC(=O)Nc1cncc(C(=O)O)c1N` gave an EC50 of 11.8 mM. In the case of `CC(C)(CC(=O)Nc1cncc(C(=O)O)c1N)NC(=O)[C@@H](N)C1CCCCC1`, the EC50 is reported as 2.6 mM. Compound `CC(C)(CC(=O)Nc1cncc(C(=O)O)c1N)NC(=O)CC1CCCC1` has an EC50 of 5.1 mM. With `CC(C)(CC(=O)Nc1cncc(C(=O)O)c1N)NC(=O)CC1CCCCC1` the EC50 was 5.4 mM. Work on `CC(C)C[C@H](N)C(=O)NC(C)(C)CC(=O)Nc1cncc(C(=O)O)c1N` yielded an EC50 of 5.7 mM. `CCCCCCCC(=O)NC(C)(C)CC(=O)Nc1cncc(C(=O)O)c1N` showed an EC50 of 10.2 mM. In the case of `CC(C)(CC(=O)Nc1cncc(C(=O)O)c1N)NC(=O)[C@H]1CC[C@@H](N)CC1`, the EC50 is reported as 7.3 mM. For `CC(C)(CC(=O)Nc1cncc(C(=O)O)c1N)NC(=O)[C@@H](N)c1ccccc1`, the EC50 was 9.5 mM. For `CC(C)(CC(=O)Nc1cncc(C(=O)O)c1N)NC(=O)C1(N)CCCCC1`, the EC50 was 7.5 mM. With `CC(C)(CC(=O)Nc1cncc(C(=O)O)c1N)NC(=O)CC1(CN)CCCCC1` the EC50 was 4.3 mM. Compound `CC(C)(CC(=O)Nc1cncc(C(=O)O)c1N)NC(=O)C[C@@H]1CCNC1` has an EC50 of 7.4 mM. Compound `CC(C)C(=O)NC(C)(C)CC(=O)Nc1cncc(C(=O)O)c1N` has an EC50 of 7.9 mM. Compound `CC(C)(C)CC(=O)NC(C)(C)CC(=O)Nc1cncc(C(=O)O)c1N` has an EC50 of 8.1 mM.
